Laboratory results from publication PMC12040169 (PLOS Biology, 2025).

Test: in vitro
Conditions: human, hela cells, % viability

| SMILES | viability at 28.5 h, 10 µM [%] | viability at 28.5 h, 10 µM (bulk resorufin, single well) [%] |
| --- | --- | --- |
| C(=C\c1nccnc1OCc1ccccn1)/c1ccccc1 [CBK106874] | 105 | – |
| OC(CNCc1ccc2c(c1)OCO2)COc1ccc(SC(F)(F)F)cc1 (stereo not shown) [CBK074691] | 120 | – |
| N=C1NC(=O)C(CC(=O)Nc2ccc(SC(F)F)cc2)S1 (stereo not shown) [CBK265648] | 91.1 | – |
| COCCOc1nc2ccccc2nc1C [CBK058489] | 103 | – |
| COc1ccc(Nc2cccc(-c3cnc(OC)nc3OC)n2)cc1 [CBK036825] | 89.6 | – |
| CC(=O)Nc1nc(-c2ccccc2C)ccc1C(=O)N(C)C [CBK106328] | 94.6 | – |
| O=C(CNC(=O)c1ccccc1)N/N=C/c1ccc(Br)cc1 [CBK260957] | 103 | – |
| Cc1cc(N(C)CCOc2ccccc2F)nc(N)n1 [CBK305969] | 79.6 | – |
| O=C(O)C(CCCCN1C(=O)c2ccccc2C1=O)N1C(=O)c2ccccc2C1=O (stereo not shown) [CBK265250] | 91.7 | – |
| C[N+]1(C)CCN(C(=O)CCC(=O)N2CC[N+](C)(C)CC2)CC1 [CBK278200I] | 94.4 | – |
| O=C(O)CSc1nc2ccc(NC(=O)COc3ccc(Cl)cc3)cc2s1 [CBK299773] | 84.6 | – |
| CCC(C)(C)c1ccc(S(=O)(=O)N2CCCN(Cc3cccc4c3OCO4)CC2)cc1 [CBK062872] | 100 | – |
| Cc1ccc2nc(Cn3cc(-c4cnn(Cc5ccccc5)c4)cn3)cn2c1 [CBK297125] | 90.4 | – |
| COc1ccccc1OCC(=O)Nc1cnc(-c2cccc(C)c2)c(-c2cccnc2)n1 [CBK037112] | 84.1 | – |
| CNC(=O)CSc1nc2cc(Cl)ccc2c(=O)n1CC1CCCO1 (stereo not shown) [CBK305937] | 86.9 | – |
| CS(=O)(=O)Nc1nccnc1N1CCN(Cc2ccc(Cl)c(Cl)c2)CC1 [CBK084267] | 98.7 | – |
| CC1(C)Cc2nc3[nH]nc(N)c3cc2CO1 [CBK261476] | 93.9 | – |
| Oc1cc(C(F)(F)F)nc(SCc2ccc(Cl)cc2)n1 [CBK002305] | 106 | – |
| O=C(NCCN1CCCCC1)c1cccc(Oc2ccccc2)c1 [CBK270335] | 98.2 | – |
| CN1CCN(c2ncc(-c3ccc(N4CCOCC4)cc3)n3ccnc23)CC1 [CBK091226] | 103 | – |
| O=C1CCCN1CCCNC(=O)N1CCN(Cc2ccccc2)CC1 [CBK155658] | 104 | – |
| COc1ccc2c(c1)COC1(CCN(C(=O)C3CCC3C(=O)O)CC1)O2 (stereo not shown) [CBK060857] | – | 97.1 |

| SMILES | viability at 28.5 h, 10 µM [%] | viability at 28.5 h, 10 µM (bulk resorufin, single well) [%] |
| --- | --- | --- |
| Cc1ccc(-c2csc3c(=O)[nH]c(N4CCCC(C(=O)NCc5cccnc5)C4)nc23)cc1 (stereo not shown) [CBK215546] | 91.7 | – |
| O=S(=O)(Cc1cccc(C(F)(F)F)c1)c1csc2ccnc(N3CCNCC3)c12 [CBK039166C] | 92 | – |
| CN(CC1COCCO1)C(=O)c1cc(Cn2ccc3ccccc32)[nH]n1 (stereo not shown) [CBK307673] | 111 | – |
| COc1cc(-c2cn3ccnc3c(NCC3CCOCC3)n2)cc(OC)c1OC [CBK037284] | 96.8 | – |
| Cc1cc2ccccc2n2c(=O)n(CC(=O)N3CCCCC3)nc12 [CBK283878] | 85.8 | – |
| O=C(CCN1C(=O)c2cccc([N+](=O)[O-])c2C1=O)Nc1cccc(-c2cnc3ccccc3n2)c1 [CBK268620] | 104 | – |
| CC(=O)Nc1cccc(Oc2nccnc2-c2ccc(F)cc2)c1 [CBK106900] | 37.1 | – |
| COc1nccnc1OC1CCN(CCCO)CC1 [CBK084254] | 97.6 | – |
| COc1ccc(-c2cn3ccnc3c(N3CCCCC3CO)n2)cc1OC (stereo not shown) [CBK066230] | 107 | – |
| O=C(Nc1ccc(S(=O)(=O)Nc2nccc(/C=C/c3ccc(Cl)cc3)n2)cc1)c1ccc(Br)cc1 [CBK263500] | 103 | – |
| O=C(NCc1cccnc1)c1cc(Br)cnc1NCCOc1ccccc1 [CBK076265] | 99.2 | – |
| COc1ccc(C(=O)NCC2(c3ccccc3)CCCC2)c(OC)c1 [CBK058164] | 113 | – |
| O=C(N1CCCCCC1)N1CCN(S(=O)(=O)N2CCOCC2)CC1 [CBK268681] | 105 | – |
| O=S(=O)(Nc1ccc2ncccc2c1)c1ccc(OC(F)(F)F)cc1 [CBK045339] | 99.7 | – |
| O=C(Cc1ccc(-c2ccccc2)cc1)NCc1cccnc1 [CBK262591] | 86.4 | – |
| Cn1nc(C(F)(F)F)c(C#N)c1Oc1ccc(C(C)(C)C)cc1 [CBK007398] | 95.7 | – |
| CC(C)(C)OCc1[nH]n(CCc2ccccc2)c(=O)c1Cc1c(Cl)cccc1Cl [CBK091452] | 89.3 | – |
| Cc1ccc(CC(=O)N2CC(=O)Nc3ccccc32)cc1 [CBK287670] | 86.2 | – |
| COC(=O)c1cccc2c1ncc1c(=O)nc(N)sc12 [CBK291214] | 101 | – |
| Cc1cc(C(F)(F)F)nc2sc(C(=O)c3ccc4c(c3)OCO4)c(N)c12 [CBK074388] | 94.5 | – |
| Fc1ccccc1/C=N/Nc1nccnc1Cl [CBK261711] | 87.8 | – |
| Cc1cnc(NC(=O)N2CCOC(c3ccc(F)cc3F)C2)s1 (stereo not shown) [CBK304126] | 88.5 | – |

| SMILES | viability at 28.5 h, 10 µM [%] | viability at 28.5 h, 10 µM (bulk resorufin, single well) [%] |
| --- | --- | --- |
| CC(C)(C)OC(=O)NC1CCC(NCc2ccccc2Br)CC1 (stereo not shown) [CBK056684] | 91.5 | – |
| CCCCOc1ccc(-c2nc(SCC(=O)O)c3c4c(sc3n2)COC(C)(C)C4)cc1 [CBK267716] | 99.1 | – |
| CC(C)(CN)CN(Cc1ccc(Cl)cc1Cl)C(=O)NCCc1c[nH]c2ccccc12 [CBK000460C] | 89.4 | – |
| CCCn1c(O)nnc1-c1cccnc1 [CBK074889] | 86.8 | – |
| O=C(O)c1cccc(-c2ccc(Nc3cccc(NC(=O)c4ccncc4)c3)nc2)c1 [CBK037776] | 101 | – |
| Nc1ncnc2c1c(I)cn2[C@@H]1O[C@H](CO)[C@H](O)C1O (stereo partly shown) [CBK201321] | 16.5 | – |
| CC(=O)c1ccc2c3c(cccc13)CC(N(C)C)C2 (stereo not shown) [CBK005691S] | 95.8 | – |
| O=S(=O)(c1ccc(Br)cc1C(F)(F)F)N1CCOCC1 [CBK062405] | 102 | – |
| CN(C)CCN(C)c1cc(-c2cccc(Br)c2)nc2ccnn12 [CBK037140] | 106 | – |
| CN(Cc1cnn(C)c1)C(=O)c1cc(O)nc2ccccc12 [CBK251706] | 106 | – |
| O=c1ccc(-c2cccs2)nn1C[C@H]1CCCN1 [CBK284313] | 88.6 | – |
| C=CCn1c(-c2sc(NC(=O)c3cc4ccccc4s3)nc2C)n[nH]c1=S [CBK295303] | 94.8 | – |
| CCN(CC)C(=O)NC(c1ccccc1OC)c1nccn1C (stereo not shown) [CBK283803] | 80.8 | – |
| CSc1ccc(NS(=O)(=O)c2ccc(NC(C)=O)c(Cl)c2)cc1 [CBK043566] | 108 | – |
| CCN(CC)C(=O)CN(CCc1ccc(OC)c(OC)c1)C(=O)NCc1c(Cl)cccc1Cl [CBK158743] | 89.9 | – |
| Cc1ccc(Nc2cc(-c3cc4ccccc4o3)ncn2)cc1NS(C)(=O)=O [CBK091148] | 93.6 | – |
| CC(C)(C)CC(NC(=O)C1CCCN(S(C)(=O)=O)C1)c1ccccc1 (stereo not shown) [CBK304563] | 90.6 | – |
| CN(CC(=O)N1CCOCC1)S(=O)(=O)c1ccc2ccccc2c1 [CBK266946] | 98.5 | – |
| Cc1cc(-c2ccc(/N=C/c3cccc(O)c3O)c(C)c2)ccc1/N=C/c1cccc(O)c1O [CBK261613] | 82.6 | – |
| NC(=O)CN1CC2(CCN(CCCn3c(=O)[nH]c4ccccc43)CC2)c2ccccc21 [CBK126787] | 89.6 | – |
| Cc1nccn1CCNC(=O)c1c2c(nn1C)CCCC2 [CBK281857] | 100 | – |
| CS(=O)(=O)N1CC=CC1C(=O)NCCCc1ccc(F)cc1 (stereo not shown) [CBK282631] | 85.5 | – |

| SMILES | viability at 28.5 h, 10 µM [%] | viability at 28.5 h, 10 µM (bulk resorufin, single well) [%] |
| --- | --- | --- |
| O=C(CN1CCCC2(CCN(C(=O)c3cc(F)c(F)cc3F)C2)C1)Nc1ccc(F)c(Cl)c1 (stereo not shown) [CBK132008] | 96.9 | – |
| O=C(c1ccc(F)cc1F)N1CCC(O)(c2ccccn2)CC1 [CBK283671] | 107 | – |
| CCc1nccn1CCCNC(=O)Nc1cc(-c2cccnc2)nn1C [CBK306657] | 88.3 | – |
| O=C(NC(c1ccc(Cl)cc1)c1cccnc1)C1CCN(C(=O)c2ccco2)CC1 (stereo not shown) [CBK059708] | 92.4 | – |
| O=C1CCC(=O)N1CCOc1nccnc1OC1CCNCC1 [CBK075084T] | 101 | – |
| COCCN1CCn2c(nc3cc(NC(=O)c4cccc([N+](=O)[O-])c4)ccc32)C1 [CBK267965] | 98.9 | – |
| O=C(O)C(Cc1ccccc1)N1C(=O)/C(=C/C(Cl)=C/c2ccc([N+](=O)[O-])cc2)SC1=S (stereo not shown) [CBK263523] | 95.4 | – |
| Cc1nc(C2CCCN(C(=O)C3CCCO3)C2)c2sccn12 (stereo not shown) [CBK282241] | 106 | – |
| O=C(O)Cc1ccc(-n2c(S)nnc2-c2ccncc2)cc1 [CBK268860] | 94.9 | – |
| O=C(Cc1nn[nH]n1)Nc1ccc(F)c(Cl)c1 [CBK006384] | 95.4 | – |
| CC(C(=O)Nc1ccc2oc(-c3ccccc3)nc2c1)(c1ccccc1)c1ccccc1 [CBK263928] | 91 | – |
| CN(C)c1ccccc1-c1cc(NC2CCCCC2)ncn1 [CBK037041] | 105 | – |
| CCN(CC)C(=O)CN(CCc1ccc(OC)c(OC)c1)C(=O)NCCCSC [CBK158725] | 94.8 | – |
| CC(C)c1csc(CNC(=O)NC2CCCN(c3ccn(C)n3)C2=O)n1 (stereo not shown) [CBK304447] | 83.6 | – |
| CCOC(=O)c1[nH]c2ccccc2c1NS(=O)(=O)c1ccc(NC(C)=O)cc1 [CBK047411] | 81.4 | – |
| O=C(O)c1[nH]c2ccccc2c1NS(=O)(=O)c1cc(Cl)sc1Cl [CBK049886] | 67.5 | – |
| O=C(Nc1ccccc1)c1ccccc1OCc1ccc(S(=O)(=O)N2CCOCC2)cc1 [CBK267396] | 92.8 | – |
| Cn1c(SCCOc2ccccc2Cl)nnc1-c1ccncc1 [CBK265969] | 111 | – |
| COc1ccc(C(=O)N2CCc3ccccc32)c(OC)n1 [CBK200281] | 106 | – |
| C/C(=N\N1CCN(Cc2cccc3ccccc23)CC1)c1ccncc1 [CBK263574] | 98.9 | – |
| COc1cccc(C(=O)Nc2nn(Cc3ccc(C(F)(F)F)cc3)c3ccccc23)c1 [CBK048273] | 83.9 | – |
| C[S+]([O-])c1ccc(-c2ccc(CN(C3CC3)C3CCN(c4ncccn4)CC3)cn2)cc1 (stereo not shown) [CBK172877] | 90.2 | – |
